This is an account of results in patent US11135308B2, “Maytansinoid derivatives with self-immolative peptide linkers and conjugates thereof” (priority 2017, dated 2021).

One data set concerns H1703 Cells. Description: In vitro cytotoxicity of predominant ADC metabolites, H1703. It is filed as cell-based. As for the experimental part:
(§1) Assays were performed in flat bottom 96-well plates in triplicate for each data point. Test articles were first diluted in complete cell culture media using 5-fold dilution series and 100 μL were added into each well. The final concentrations typically ranged from 3×10^−8 M to 8×10^−14 M. The target cells were then added to the test articles at 1,500 to 3,000 cells per well in 100 μL of complete culture media. The mixtures were incubated at 37° C. in a humidified 5% CO2 incubator for 5 days. Viability of the remaining cells was determined by the WST-8 (Tetrazolium salt-8; 2-(2-methoxy-4-nitrophenyl)-3-(4-nitrophenyl)-5-(2,4-disulfophenyl)-2H-tetrazolium) based colorimetric assay using the Cell Counting Kit-8 (Dojindo Molecular Technologies, Inc., Rockville, Md.). The WST-8 is reduced by dehydrogenases in live cells to give a yellow-colored formazan product that is soluble in tissue culture media. […] The WST-8 signals were then measured using a microplate plate reader at optical density of 450 nm. The surviving fraction was calculated by dividing the value of each treated sample by the average value of untreated controls, and plotted against the test article concentrations in a semi-log plot for each treatment. IC50 values were determined using nonlinear regression (curve fit) with GraphPad Prism v5 program (GraphPad Software, La Jolla, Calif.). […]

The next data set deals with H1975 Cells. Description: In vitro cytotoxicity of predominant ADC metabolites, H1975. It counts as cell-based. As for the experimental part:
as §1

A further data set concerns COLO704 Cells. Description: In vitro cytotoxicity of predominant ADC metabolites, COLO704. It is filed as cell-based. On the procedure:
as §1

The next data set relates to FRα-expressing KB cells. Description: In vitro metabolism study in KB cells. It counts as in vitro ADME. The settings on record: KB cells treated with saturating amount of 17c conjugate for 24 hours; UHPLC/HRMS. On the procedure:
FRα-expressing KB cells were treated with a saturating amount of 17c conjugate for 24 hours. Catabolite-containing media was incubated with 5 mM NEM to cap any free thiol present and then captured by pre-bound protein A-anti-maytansinoid antibody complex. The catabolites were released by acetone extraction, and analyzed by UHPLC/HRMS.

Broadly, the IC50 is the concentration needed to halve the response being measured.

`COc1cc2cc(c1Cl)N(C)C(=O)C[C@H](OC(=O)[C@H](C)N(C)C(=O)CCCSC)[C@]1(C)O[C@H]1[C@H](C)[C@@H]1C[C@@](O)(NC(=O)O1)[C@H](OC)/C=C/C=C(\C)C2` [metabolite 25b, DM-CO—(CH2)3-SMe]: the IC50 in the data set with H1703 Cells came out at 5.92 pM; in the data set on H1975 Cells, 5.6 pM; in the data set with COLO704 Cells it was 6.88 pM.

Take `COc1cc2cc(c1Cl)N(C)C(=O)C[C@H](OC(=O)[C@H](C)N(C)C(=O)CCCCCSC)[C@]1(C)O[C@H]1[C@H](C)[C@@H]1C[C@@](O)(NC(=O)O1)[C@H](OC)/C=C/C=C(\C)C2` [metabolite 25a, DM-CO—(CH2)5-SMe]: the results for the IC50 with H1703 Cells and with COLO704 Cells were 2.27 pM and 3.04 pM, respectively. Besides, the “catabolites identified in cell culture media” value in the data set on FRα-expressing KB cells was “major effluxed catabolites”.
